Experimental findings from patent publication US20080248511A1, “METHODS TO QUENCH LIGHT FROM OPTICAL REACTIONS” (priority 2007, published 2008) are described below.

pKi: −log10 of the molar value.

For test [1], the target named is T1, firefly luciferase (Photinus pyralis, UniProt P08659). The test is described as follows: Detergent screen with Tergitol NP-9, firefly luciferase (Example 3). To be noted: 0.06% quencher in reagent solution; 0.5% Tergitol NP-9. It is filed as biochemical. The method, then: (§1) Unless otherwise specified, materials were obtained from Sigma-Aldrich.
(§2) The firefly luciferase and Renilla luciferase enzymes were diluted as follows. Firefly luciferase was diluted to 14 ng/ml in Delbecco's Minimal Essential (DMEM) medium (Gibco/Invitrogen) containing 0.1% Prionex®. Renilla luciferase was diluted to 10 ng/ml in DMEM medium containing 0.1% Prionex®.
(§3) The luciferase reactions were initiated by adding 50 μl of the firefly luciferase or Renilla luciferase enzyme solution to 50 μl of reagent solution. The reactions were performed as described above. The retained firefly luciferase and Renilla luciferase luminescence as well as the selectivity values for each quencher were calculated (Table 3). The values listed are based on 0.06% quencher in the reagent solution.

In test [2] the target is T2, Renilla luciferase (Renilla reniformis, UniProt P27652).
T2 sequence (P27652 1-311): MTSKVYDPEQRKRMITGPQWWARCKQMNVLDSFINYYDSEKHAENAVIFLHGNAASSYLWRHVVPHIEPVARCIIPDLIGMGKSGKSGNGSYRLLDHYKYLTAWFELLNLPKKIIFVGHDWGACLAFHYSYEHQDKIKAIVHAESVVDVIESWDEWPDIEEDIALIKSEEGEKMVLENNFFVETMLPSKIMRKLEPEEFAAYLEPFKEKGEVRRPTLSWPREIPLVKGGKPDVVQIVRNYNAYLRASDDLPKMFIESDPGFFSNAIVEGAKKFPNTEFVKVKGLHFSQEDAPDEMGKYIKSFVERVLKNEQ
The test is described as follows: Detergent screen with Tergitol NP-9, Renilla luciferase (Example 3). The test is classed as biochemical. To be noted: 0.5% Tergitol NP-9. The method, then: as §1, §2, §3

The target of test [3] is T2, Renilla luciferase. The test is described as follows: Quench of Renilla luciferase luminescence in lysed CHO cells expressing Renilla luciferase (Example 7). The test is classed as cell-based. To be noted: for Inhibition (Initial/Addition): 10 μM #3077 and/or 0.04% #1424, 0.5% Tergitol NP-9; for Renilla luciferase luminescence after inhibitor addition: 3 minutes after lysis solution with 0.5% Tergitol NP-9 and 10 μM #3077 and/or 0.04% #1424; for Initial Renilla luciferase luminescence: CHO cells, EnduRen, before inhibitor addition. The method, then:
Renilla luciferase was expressed under the control of the CMV promoter in Chinese Hamster Ovary (CHO) cells. The cells were grown in DMEM+10% FBS (Invitrogen). The cells (20,000) were plated in 96-well plates and cultured in the presence of the EnduRen™ Live Cell Substrate (Promega) in order to generate continuous Renilla luciferase-mediated luminescence. After 12 hours of culturing, Renilla luciferase-mediated luminescence was measured. After measurement, the cells were lysed with an equal volume of a solution containing 0.5% Tergitol NP-9 and either 10 μM compound #3077 (non-detergent inhibitor), 0.04% 4-((dodecyldimethylammonium)methyl)benzoate (#1424) (detergent inhibitor), or a combination of the two. The cells were exposed for 3 minutes and Renilla luciferase-mediated luminescence was measured.

Test [4] has as its target T1, firefly luciferase. The test is described as follows: Versions of firefly luciferase reagent, firefly luciferase only samples (Example 10). The test is classed as biochemical. The method, then:
(§4) Eight different versions of firefly luciferase reagent were made. The versions contained one of two luciferin substrates: luciferin or 5′ fluoroluciferin. The versions also differed in whether they contained Coenzyme A and/or DTT (a thiol). All versions of the reagent contained 250 mM HEPES pH 7.4, 16 mM MgSO4, 2 mM ATP and 2 mM luciferin or 5′fluoroluciferin. To create the various versions of the firefly luciferase reagent, 20 mM DTT, 2 mM Coenzyme A, 20 mM DTT and 2 mM Coenzyme A or neither DTT or Coenzyme A was added. In addition, sub-versions of the reagent were created which contained 0.3 mM of the indole (#3077) Renilla luciferase quencher, 0.04% (w:v) of the detergent (4-((dodecyldimethylammonium)methyl)benzoate) Renilla luciferase quencher, both quenchers or neither quencher. In all, a total of 32 versions of firefly luciferase reagent were created (Table 10).
(§5) To mimic the effect of measuring Renilla luciferase luminescence followed by the measurement of firefly luciferase luminescence in a single sample, side-by-side samples (each in triplicate) were used for each version of reagent. The first triplicate of samples comprised one of the versions of firefly luciferase reagent and a firefly luciferase solution (added 1:1) containing F12 medium (Invitrogen), 1 mg/ml BSA (ThermoFisher) and 14 ng/ml QuantiLum® luciferase (Promega). The second triplicate of samples comprised the same version of firefly luciferase reagent used in the first trio and a firefly/Renilla luciferase solution (added 1:1) containing F12 medium, 1 mg/ml BSA, 14 ng/ml QuantiLum® luciferase and 140 ng/ml Renilla luciferase. Firefly and Renilla luciferase luminescence was measured as previously described in both sets of samples at the same time. […] The firefly luciferase measurements were obtained from the samples only containing the firefly luciferase while the Renilla luciferase measurements were obtained from the samples containing both firefly and Renilla luciferases.

In test [5] the target is T2, Renilla luciferase. As to the kind of experiment: Versions of firefly luciferase reagent, firefly/Renilla luciferase samples (Example 10). To be noted: firefly/Renilla sample. It is filed as biochemical. The method, then: as §4, §5
Test [6] concerns the target T1, firefly luciferase. As to the kind of experiment: Non-detergent compound screen, firefly luciferase (Example 6). The test is classed as biochemical. To be noted: 0.5% Tergitol NP-9, 0.03% BDDABr, read-out: Retained Firefly Luciferase Value (%).
In test [7] the target is T2, Renilla luciferase. The test is described as follows: Non-detergent compound screen, Renilla luciferase (Example 6). It is filed as biochemical.
The target in test [8] is T2, Renilla luciferase. As to the kind of experiment: Quench of Renilla luciferase luminescence by competitive inhibitors in detergent-containing quenching reagent (Example 1). It is filed as biochemical. The method, then:
Renilla luciferase (1×10^−9 M in Renilla Luciferase Lysis Buffer (Promega))+0.1% Prionex (PentaPharma) was added to Renilla Luciferase Assay Buffer (Promega) containing 3 μM coelenterazine-h. The initial Renilla luciferase-mediated luminescence was measured for 10 seconds using a Turner 20/20 n (Turner BioSystems). A quenching reagent containing 50 mM HEPES pH 7.4, 16 mM MgSO4, 1 mM CDTA, 0.5% Tergitol NP-9, 0.015% dodecyltrimethylammonium bromide, 10 mM thiourea, 0.05% Mazu-DF-204 (PGP), and 1.5 mM ATP (Pharmacia) was added to the reactions to reduce the Renilla luciferase-mediated luciferase luminescence. […] After the addition of the inhibitors, a second Renilla luciferase-mediated luminescence reading was taken. Unless otherwise specified, materials were obtained from Sigma-Aldrich.
The quenching agents described herein are effective in the presence of detergents used for cell lysis as well as other quenching agents.

Setting [9] is: Luciferin, no thiol, 0.3 mM #3077 and/or 0.04% #1424.
The mark [10] stands for this setting: Quench Reagent + 10 μM inhibitor.
Setting [11] is: Quench Reagent + 100 μM inhibitor.

T1 sequence (P08659 whole entry): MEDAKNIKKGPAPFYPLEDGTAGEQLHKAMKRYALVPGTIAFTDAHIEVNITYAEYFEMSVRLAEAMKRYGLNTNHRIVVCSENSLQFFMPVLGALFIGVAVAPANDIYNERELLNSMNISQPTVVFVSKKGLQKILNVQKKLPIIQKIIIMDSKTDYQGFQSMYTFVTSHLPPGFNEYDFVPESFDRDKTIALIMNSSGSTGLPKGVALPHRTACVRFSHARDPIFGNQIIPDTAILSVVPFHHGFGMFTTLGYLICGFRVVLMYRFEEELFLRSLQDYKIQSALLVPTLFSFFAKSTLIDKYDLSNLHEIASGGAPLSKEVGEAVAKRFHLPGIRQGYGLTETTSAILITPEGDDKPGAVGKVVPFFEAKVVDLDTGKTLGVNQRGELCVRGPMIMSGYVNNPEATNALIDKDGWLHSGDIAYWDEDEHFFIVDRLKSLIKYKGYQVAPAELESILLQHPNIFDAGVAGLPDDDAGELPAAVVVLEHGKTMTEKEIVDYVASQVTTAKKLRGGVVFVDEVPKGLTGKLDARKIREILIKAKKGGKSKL

On to `CCCCCCCCCCCC[N+](C)(C)Cc1ccc(C(=O)[O-])cc1` [Compound 1424, 4-((Dodecyldimethylammonium)methyl)benzoate], for which, at firefly luciferase [1], the “Retained Firefly Luminescence (%)” value is listed as 127.0%. In addition, on Renilla luciferase [2] (0.06% quencher in reagent solution), the “Retained Renilla Luminescence (%)” value stood at 20.0%. Further, the “Selectivity Value” at Renilla luciferase [2] (retained firefly / retained Renilla, 0.06% quencher) is on record as 6.4. The “Inhibition (Initial/Addition)” value at Renilla luciferase [3] was 52. The “Renilla luciferase luminescence after inhibitor addition” value at Renilla luciferase [3] is reported as 19963. For the same molecule, the “Initial Renilla luciferase luminescence” value on Renilla luciferase [3] is listed as 1037560. The Firefly luminescence was 2,095,790 at firefly luciferase [4] (5′-fluoroluciferin, CoA); 512,625 on firefly luciferase [4] (5′-fluoroluciferin, DTT); 2,376,253 at firefly luciferase [4] (5′-fluoroluciferin, DTT + CoA); 268,289 at firefly luciferase [4] (5′-fluoroluciferin, no thiol); 1,621,883 on firefly luciferase [4] (Luciferin, CoA); 291,173 at firefly luciferase [4] (Luciferin, DTT). Besides, the Firefly luminescence on firefly luciferase [4] (Luciferin, DTT + CoA) is reported as 1,881,453; on firefly luciferase [4] (setting [9]) it was 144,239. Further, the Renilla luminescence at Renilla luciferase [5] (5′-fluoroluciferin, CoA) is on record as 2,891,880; at Renilla luciferase [5] (5′-fluoroluciferin, DTT + CoA), 2,833,435; at Renilla luciferase [5] (5′-fluoroluciferin, DTT) it was 1,142,573; on Renilla luciferase [5] (5′-fluoroluciferin, no thiol), 1,138,027; at Renilla luciferase [5] (Luciferin, CoA), 2,240,063; at Renilla luciferase [5] (Luciferin, DTT + CoA), 2,265,505. In addition, the Renilla luminescence on Renilla luciferase [5] (Luciferin, DTT) is 699,059; at Renilla luciferase [5] (Luciferin, no thiol), 660,916.
With `CCCC[N+](C)(C)CCc1c[nH]c2ccc(/C=C/C(=O)NCc3ccc(OC)cc3)cc12.[I-]` [Compound 3077, (E)-N-(2-(5-(3-(4-methoxybenzylamino)-3-oxoprop-1-enyl)-1H-indol-3-yl)ethyl)-N,N-dimethylbutan-1-aminium iodide], the remaining activity at 10 µM came out at 100% at firefly luciferase [6] (inhibitor 10 μM) and 5% at Renilla luciferase [7] (inhibitor 10 μM, 0.5% Tergitol NP-9, 0.03% BDDABr, read-out: Retained Renilla Luciferase Value (%)). Besides, the remaining activity at 100 µM at firefly luciferase [6] (inhibitor 100 μM) was determined as 98%; at Renilla luciferase [7] (inhibitor 100 μM, 0.5% Tergitol NP-9, 0.03% BDDABr, read-out: Retained Renilla Luciferase Value (%)), 1%. The remaining activity at 1000 µM was determined as 98% at firefly luciferase [6] (inhibitor 1000 μM) and 0.1% at Renilla luciferase [7] (inhibitor 1000 μM, 0.5% Tergitol NP-9, 0.03% BDDABr, read-out: Retained Renilla Luciferase Value (%)). In addition, the “Selectivity Value” on Renilla luciferase [7] (inhibitor 10 μM) is 20; at Renilla luciferase [7] (inhibitor 100 μM) it was 98; at Renilla luciferase [7] (inhibitor 1000 μM) it was 980. On Renilla luciferase [3], the “Inhibition (Initial/Addition)” value is 608. Also, the “effectiveness at quenching Renilla luciferase-mediated luminescence relative to #1424 alone” value at Renilla luciferase [3] (10 μM #3077 vs 0.04% #1424) is recorded as “about 12 fold”. For the same molecule, at Renilla luciferase [3], the “Renilla luciferase luminescence after inhibitor addition” value came out at 1402. Further, the “Initial Renilla luciferase luminescence” value on Renilla luciferase [3] is 852596. The Firefly luminescence was 2,367,927 on firefly luciferase [4] (5′-fluoroluciferin, CoA); 499,900 on firefly luciferase [4] (5′-fluoroluciferin, DTT); 2,677,367 at firefly luciferase [4] (5′-fluoroluciferin, DTT + CoA); 239,138 at firefly luciferase [4] (5′-fluoroluciferin, no thiol); 1,502,143 at firefly luciferase [4] (Luciferin, CoA); 252,225 at firefly luciferase [4] (Luciferin, DTT). For the same molecule, the Firefly luminescence is reported as 1,821,797 on firefly luciferase [4] (Luciferin, DTT + CoA) and 115,749 at firefly luciferase [4] (setting [9]). Further, the Renilla luminescence is given as 2,360,350 on Renilla luciferase [5] (5′-fluoroluciferin, CoA); 2,653,610 at Renilla luciferase [5] (5′-fluoroluciferin, DTT + CoA); 514,808 at Renilla luciferase [5] (5′-fluoroluciferin, DTT); 280,188 on Renilla luciferase [5] (5′-fluoroluciferin, no thiol); 1,572,983 on Renilla luciferase [5] (Luciferin, CoA); 1,770,665 at Renilla luciferase [5] (Luciferin, DTT + CoA). For the same molecule, the Renilla luminescence on Renilla luciferase [5] (Luciferin, DTT) is 260,392; on Renilla luciferase [5] (Luciferin, no thiol), 136,759.
As to `O=C(Cc1ccc(O)cc1)Nc1ncc(-c2ccc(O)cc2)nc1Cc1ccccc1` [coelenteramide], the “Reduction in Renilla luciferase luminescence after 2nd measurement” value on Renilla luciferase [8] (setting [10]) was 18-fold; at Renilla luciferase [8] (setting [11]), 21-fold. For the same molecule, at Renilla luciferase [8] (in the presence of lysing detergent and quenching reagent), the pKi was less than 4.00.
In the case of methylether coelenterazine-h, the “Reduction in Renilla luciferase luminescence after 2nd measurement” value on Renilla luciferase [8] (setting [10]) is reported as 15-fold; at Renilla luciferase [8] (setting [11]), 30-fold.
In the same order, the values of methylether coelenterazine-hh are 21-fold and 34-fold.

Broadly, the pKi is −log10 of the Ki, conventionally taken in molar units.
